From patent US7291492B2, “Histone deacetylase 9” (The Institute of Cancer Research, priority 2001, dated 2007)

Tested on: GAL4 DBD-HDAC9 fusions
Details: 293T cells, GAL4-TK-Luc reporter; HDAC9, HDAC9ΔCD and HDAC9CD fusions
Experimental: GAL4-Tk-Luc was transiently transfected into 293T cells together with 100 ng GAL4 DBD fusions. All Results were performed in duplicate […].
It has been previously established that HDACs repress transcription when tethered to DNA as Gal4 fusion proteins. […] A GAL4^uasx5-TK-Luciferase reporter gene was transiently transfected into 293T cells together with the expression vectors for the indicated GAL4 fusion proteins.

Substance: Trichostatin A
- effect on the repressive effects of GAL4 DBD-HDAC9 fusions (reporter activity): partially relieved
